{"source": "patent US9718859B2", "about": "“Glycogen synthase kinase-3 inhibitors” (Ramot at Tel-Aviv University Ltd., priority 2013, dated 2017)", "key": {"GSK-3β F93A mutant [1]": {"biological_target": "T1, GSK-3β F93A mutant (Homo sapiens, UniProt P49841, F93A)", "T1 construct": "made in house, partially purified on a DE-52 minicolumn", "T1 sequence (P49841 whole entry F93A)": "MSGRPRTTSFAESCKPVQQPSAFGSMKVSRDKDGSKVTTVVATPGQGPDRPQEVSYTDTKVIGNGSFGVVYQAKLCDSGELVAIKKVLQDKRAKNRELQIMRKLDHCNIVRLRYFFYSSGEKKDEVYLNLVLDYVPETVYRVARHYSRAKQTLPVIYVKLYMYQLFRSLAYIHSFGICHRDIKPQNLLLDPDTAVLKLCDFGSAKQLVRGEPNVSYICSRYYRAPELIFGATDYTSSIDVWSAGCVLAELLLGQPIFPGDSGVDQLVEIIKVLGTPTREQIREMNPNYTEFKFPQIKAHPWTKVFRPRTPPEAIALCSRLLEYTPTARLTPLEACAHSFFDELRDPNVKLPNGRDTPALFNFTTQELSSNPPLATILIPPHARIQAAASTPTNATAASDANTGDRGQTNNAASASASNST", "details": "Licht-Murava et al. 2011; cited from earlier work"}, "5XFAD mice": {"tested_on": "5XFAD mice", "experiment": "Contextual fear conditioning test in 5XFAD mice", "type": "in vivo, mouse", "details": "intranasal, 60 μg/dose every other day for 120 days, FIG. 8A", "experimental": "5XFAD mice were purchased from Jackson laboratory and maintained at an animal house. The 5XFAD mice were randomly assigned to two groups (6 animals each). Treatment started at the age of 2 months, by administering, intranassally, L807-mts (60 μg) (5 μl solution in each nostril) every other day for 120 days.\nA contextual fear conditioning test (FCT) was thereafter conducted as described in Saura et al. (2005) J. Neurosci. 25(29), 6755-6764. Briefly, mice were subjected to an unconditioned electric stimulus (US footshock; 1 s/1 mA) in a training pre-session. Twenty-four hours later, FCT was measured by scoring freezing behavior (the absence of all but respiratory movement) for 180 seconds using a FreezeFrame automated scoring system (Coulbourn Instruments). All experiments were in compliance with protocols approved by the TAU animal care committee.\nMice (two-month old) were treated intranasally with L807-mts (60 μg/dose) for 120 days. At the end of the experiment mice were subjected to the contextual fear conditioning test (FCT), a behavioral test widely used to evaluate associative learning and memory (see, Saura et al. (2005) supra)."}, "Aβ loads": {"tested_on": "Aβ loads", "experiment": "Congo red staining of Aβ loads in brain sections of 5XFAD mice", "type": "in vivo, mouse", "details": "intranasal 60 μg/dose for 120 days, FIG. 8B", "experimental": "5XFAD mice were purchased from Jackson laboratory and maintained at an animal house. The 5XFAD mice were randomly assigned to two groups (6 animals each). Treatment started at the age of 2 months, by administering, intranassally, L807-mts (60 μg) (5 μl solution in each nostril) every other day for 120 days. Saline-perfused brains of the tested mice were rapidly excised and frozen in N2. Brains were divided into the two hemispheres: the left hemisphere was taken for immunohistology and the right hemisphere for immunoblot analysis. Coronal brains sections (14 μm) were cut by cryostat at -20° C. Slices at Bregma -1.58 mm were fixed (using 4% PFA) and stained with Congo red dye (Sigma-Aldrich) or with an antigen-retrieval method with anti-Aβ 6E10 antibody (SIG-39300) and visualized by fluorescence microscopy. Quantification of Aβ depositions was done for the whole hippocampus area in a blinded fashion using Imaging Research software from the NIH in an unbiased stereological approach. Mice were scarified and coronal brain sections were stained with congo red dye and Aβ loads were visualized by fluorescence microscopy."}, "GSK-3": {"biological_target": "GSK-3 (Homo sapiens, UniProt P49841)", "sequence (P49841 whole entry)": "as the sequence (P49841 whole entry F93A) above, with A93F counted along it", "details": "Licht-Murava et al. 2011; cited from earlier work"}, "GSK-3β (WT) [2]": {"biological_target": "T2, GSK-3β (WT) (Homo sapiens, UniProt P49841)", "T2 construct": "made in house", "experiment": "In vitro kinase assay: inhibition of GSK-3β (WT), pIRS-1 as substrate", "type": "biochemical", "details": "FIG. 4", "experimental": "Bacterially expressed Purified GSK-3β Wild-Type (WT) was prepared as previously described (Eldar-Finkelman 1996 PNAS).\n(§1) GSK-3β (WT) was incubated with pIRS-1, RREGGMSRPAS(p)VDG (SEQ ID NO:55), as an exemplary substrate, in a reaction mixture (50 mM Tris-HCl, pH 7.3, 10 mM magnesium acetate, and 0.01% β-mercaptoethanol) together with 100 μM 32P[γ-ATP] (0.5 μCi/assay) for 15 minutes. Reactions were stopped by spotting on p81 paper (Whatman), washed with phosphoric acid, and counted for radioactivity as previously described [Ilouz et al. (2006) supra].\nThe ability of the novel peptides described in Example 1 to inhibit GSK-3β was determined by in vitro kinase assays as described hereinabove. The results are presented in FIGS. 2A-B. Substrate phosphorylation obtained in reaction with no inhibitor was defined as 100% (Con), and the results presented are means of two independent experiments each performed in duplicate±SEM."}, "GSK-3β (WT) [3]": {"biological_target": "T2, GSK-3β (WT)", "experiment": "In vitro kinase assay: phosphorylation of the peptide as a substrate by GSK-3β (WT), 32P-γ-ATP", "type": "biochemical", "details": "WT GSK-3β, FIG. 3 and FIG. 5", "experimental": "as §1\n(§2) In assays conducted with GSK-3 mutant, the GSK-3β proteins (WT or mutant) were incubated with the indicated substrate in a reaction mixture (50 mM Tris-HCl, pH 7.3, 10 mM magnesium acetate, and 0.01% β-mercaptoethanol) together with 100 μM ^32P[γ-ATP] (0.5 μCi/assay) for 15 minutes. Reactions were stopped by spotting on p81 paper (Whatman) washed with phosphoric acid, and counted for radioactivity as previously described [Ilouz et al. (2006) supra]. In assays from cells overexpressing GSK-3 proteins, GSK-3 proteins were partially purified by DE-52 minicolumn and subjected to in vitro kinase assays as described. The activity of the endogenous GSK-3 that was determined in cells transfected with the pCMV4 vector was subtracted from the activity values obtained for WT and mutants.\nThus, in vitro kinase assays as described hereinabove were performed in the presence of pIRS-1 substrate or L807 and phosphorylation was determined. […]"}, "GSK-3β F93A mutant [4]": {"biological_target": "T1, GSK-3β F93A mutant", "experiment": "In vitro kinase assay: phosphorylation of the peptide as a substrate by the GSK-3β F93A mutant", "type": "biochemical", "details": "FIG. 5", "experimental": "(§3) GSK-3β F93A mutant (in which Phe93 was replaced by alanine) was prepared as described in WO 2012/101599.\nas §2\nThus, L807 and the substrate pHSF-1 were both tested in in vitro kinase assays as described hereinabove, for the ability of GSK-3β (WT) and its F93A mutant to phosphorylate these peptides."}, "GSK-3β F93A mutant [5]": {"biological_target": "T1, GSK-3β F93A mutant", "experiment": "In vitro kinase assay: inhibition of the GSK-3β F93A mutant, pIRS-1 as substrate", "type": "biochemical", "details": "FIG. 6", "experimental": "as §3, §2\nIn vitro kinase assays conducted for evaluating the inhibition activity of L807 and pL807 of the F93A mutant were also conducted, using pIRS-1 as a substrate."}}, "note": "“Also recorded” adds a separate entry of the source. Square brackets hold non-standard residues; d marks the D form. Ends that are not written are not given here. Peptide text beside a SMILES is read from it. * marks the point of attachment. Myristoyl = CCCCCCCCCCCCCC(=O)*; pS = N[C@@H](COP(=O)(O)O)C(=O)O"}
{"compound": "RREGGMSRPAS(p)VDG (RREGGMSRPA[pS]VDG) [pIRS-1, GSK-3 substrate peptide from the insulin receptor substrate-1]", "values": [{"measurement": "Peptide phosphorylation by F93A mutant (literature)", "setting": "GSK-3β F93A mutant [1]", "result": "not phosphorylated"}]}
{"compound": "CCCCCCCCCCCCCC(=O)NCC(=O)N[C@@H](CCCCN)C(=O)N[C@@H](CCC(=O)O)C(=O)N[C@@H](C)C(=O)N1CCC[C@H]1C(=O)N1CCC[C@H]1C(=O)N[C@@H](CO)C(=O)N1CCC[C@H]1C(=O)N1CCC[C@H]1C(=O)N[C@@H](CCC(N)=O)C(=O)N[C@@H](COP(=O)(O)O)C(=O)N1CCC[C@H]1C(=O)O", "note": "[L807-mts, myristic acid-GKEAPPSPPQS(p)P] (Myristoyl-GKEAPPSPPQ[pS]P-OH; C-terminus assumed)", "values": [{"measurement": "Freezing behavior, performance relative to wild-type (WT) mice", "setting": "5XFAD mice", "result": "up to 81%±14%"}, {"measurement": "Amount and mean sizes of Aβ loads", "setting": "Aβ loads", "result": "largely reduced"}]}
{"compound": "C[C@H](NC(=O)[C@H](CCC(=O)O)NC(=O)[C@@H](N)CCCCN)C(=O)N1CCC[C@H]1C(=O)N1CCC[C@H]1C(=O)N[C@@H](C)C(=O)N1CCC[C@H]1C(=O)N1CCC[C@H]1C(=O)N[C@@H](CCC(N)=O)C(=O)N[C@@H](COP(=O)(O)O)C(=O)N1CCC[C@H]1C(=O)O", "note": "[L803, KEAPPAPPQS(p)P] (H-KEAPPAPPQ[pS]P-OH; N-terminus and C-terminus assumed)", "values": [{"measurement": "Interaction with F93 of GSK-3, binding mode as previously reported", "setting": "GSK-3", "result": "contacts GSK-3 residue F93"}]}
{"compound": "KEAPPS(p)PPQS(p)P (KEAPP[pS]PPQ[pS]P) [pL807, double phosphorylated L807]", "values": [{"measurement": "Inhibition of GSK-3", "setting": "GSK-3β (WT) [2]", "result": "does not inhibit GSK-3"}, {"measurement": "Peptide phosphorylation by GSK-3β (substrate or not)", "setting": "GSK-3β (WT) [3]", "result": "is not a substrate of GSK-3"}]}
{"compound": "C[C@H](NC(=O)[C@H](CCC(=O)O)NC(=O)[C@@H](N)CCCCN)C(=O)N1CCC[C@H]1C(=O)N1CCC[C@H]1C(=O)N[C@@H](CO)C(=O)N1CCC[C@H]1C(=O)N1CCC[C@H]1C(=O)N[C@@H](CCC(N)=O)C(=O)N[C@@H](COP(=O)(O)O)C(=O)N1CCC[C@H]1C(=O)O", "note": "[L807, KEAPPSPPQS(p)P] (H-KEAPPSPPQ[pS]P-OH; N-terminus and C-terminus assumed)", "values": [{"measurement": "Peptide phosphorylation by GSK-3β (substrate or not)", "setting": "GSK-3β (WT) [3]", "result": "is a substrate of GSK-3; also recorded: phosphorylated"}, {"measurement": "Peptide phosphorylation by F93A mutant", "setting": "GSK-3β F93A mutant [4]", "result": "phosphorylated"}, {"measurement": "Inhibition of the F93A mutant", "setting": "GSK-3β F93A mutant [5]", "result": "no inhibition"}]}
